Laboratory results taken from ChEMBL document CHEMBL4507269, “Data for DCP probe BAY-386” (2021).

Legend:
[1] = target: T1, Alpha-1D adrenergic receptor (Homo sapiens) (UniProt P25100); test: Inhibition of Adrenergic alpha1D at 10 µM in the Eurofins-Panlabs radioligand binding assay (Eurofins_assay_203400); settings: Compound concentration 10.0 uM
T1 sequence (whole entry): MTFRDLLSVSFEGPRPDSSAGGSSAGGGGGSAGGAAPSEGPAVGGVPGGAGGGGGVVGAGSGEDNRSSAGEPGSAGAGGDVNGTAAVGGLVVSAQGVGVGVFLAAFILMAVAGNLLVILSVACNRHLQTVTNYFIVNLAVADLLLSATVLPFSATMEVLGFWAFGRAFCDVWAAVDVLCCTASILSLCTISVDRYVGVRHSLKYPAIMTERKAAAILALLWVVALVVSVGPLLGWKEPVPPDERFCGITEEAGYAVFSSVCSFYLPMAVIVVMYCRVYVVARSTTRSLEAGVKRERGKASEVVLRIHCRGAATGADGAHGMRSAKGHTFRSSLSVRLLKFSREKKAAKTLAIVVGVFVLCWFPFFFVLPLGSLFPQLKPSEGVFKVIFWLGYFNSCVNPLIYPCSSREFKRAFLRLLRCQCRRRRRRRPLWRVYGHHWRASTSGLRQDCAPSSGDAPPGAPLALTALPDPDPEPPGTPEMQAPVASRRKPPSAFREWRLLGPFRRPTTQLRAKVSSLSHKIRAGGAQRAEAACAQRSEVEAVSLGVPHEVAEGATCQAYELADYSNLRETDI

[2] = target: T2, D(4) dopamine receptor (Homo sapiens) (UniProt P21917); test: Inhibition of Dopamine D4.2 at 10 µM in the Eurofins-Panlabs radioligand binding assay (Eurofins_assay_219900); set-up: ligand concentration 0.5 nM; settings: Compound concentration 10.0 uM
T2 sequence (whole entry): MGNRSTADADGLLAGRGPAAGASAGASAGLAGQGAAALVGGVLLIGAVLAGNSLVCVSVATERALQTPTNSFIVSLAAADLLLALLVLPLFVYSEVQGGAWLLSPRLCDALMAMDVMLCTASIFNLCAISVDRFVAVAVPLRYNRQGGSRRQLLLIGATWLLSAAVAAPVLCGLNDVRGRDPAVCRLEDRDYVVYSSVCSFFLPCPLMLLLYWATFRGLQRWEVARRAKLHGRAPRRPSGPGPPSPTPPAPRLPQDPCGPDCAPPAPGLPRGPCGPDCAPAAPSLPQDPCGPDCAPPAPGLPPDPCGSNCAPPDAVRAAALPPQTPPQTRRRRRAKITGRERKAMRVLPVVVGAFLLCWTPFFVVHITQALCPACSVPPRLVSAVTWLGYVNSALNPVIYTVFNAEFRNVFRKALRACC

[3] = target: Gamma-aminobutyric acid type B receptor subunit 1 (Homo sapiens) (UniProt Q9UBS5); test: Inhibition of GABAB1A at compound concentration of 10.0 uM in the Eurofins-Panlabs radioligand binding assay (Eurofins_assay_228610); set-up: ligand concentration 4 nM; settings: Compound concentration 10.0 uM
Chain of Gamma-aminobutyric acid type B receptor subunit 1 (Homo sapiens) (Q9UBS5 whole entry): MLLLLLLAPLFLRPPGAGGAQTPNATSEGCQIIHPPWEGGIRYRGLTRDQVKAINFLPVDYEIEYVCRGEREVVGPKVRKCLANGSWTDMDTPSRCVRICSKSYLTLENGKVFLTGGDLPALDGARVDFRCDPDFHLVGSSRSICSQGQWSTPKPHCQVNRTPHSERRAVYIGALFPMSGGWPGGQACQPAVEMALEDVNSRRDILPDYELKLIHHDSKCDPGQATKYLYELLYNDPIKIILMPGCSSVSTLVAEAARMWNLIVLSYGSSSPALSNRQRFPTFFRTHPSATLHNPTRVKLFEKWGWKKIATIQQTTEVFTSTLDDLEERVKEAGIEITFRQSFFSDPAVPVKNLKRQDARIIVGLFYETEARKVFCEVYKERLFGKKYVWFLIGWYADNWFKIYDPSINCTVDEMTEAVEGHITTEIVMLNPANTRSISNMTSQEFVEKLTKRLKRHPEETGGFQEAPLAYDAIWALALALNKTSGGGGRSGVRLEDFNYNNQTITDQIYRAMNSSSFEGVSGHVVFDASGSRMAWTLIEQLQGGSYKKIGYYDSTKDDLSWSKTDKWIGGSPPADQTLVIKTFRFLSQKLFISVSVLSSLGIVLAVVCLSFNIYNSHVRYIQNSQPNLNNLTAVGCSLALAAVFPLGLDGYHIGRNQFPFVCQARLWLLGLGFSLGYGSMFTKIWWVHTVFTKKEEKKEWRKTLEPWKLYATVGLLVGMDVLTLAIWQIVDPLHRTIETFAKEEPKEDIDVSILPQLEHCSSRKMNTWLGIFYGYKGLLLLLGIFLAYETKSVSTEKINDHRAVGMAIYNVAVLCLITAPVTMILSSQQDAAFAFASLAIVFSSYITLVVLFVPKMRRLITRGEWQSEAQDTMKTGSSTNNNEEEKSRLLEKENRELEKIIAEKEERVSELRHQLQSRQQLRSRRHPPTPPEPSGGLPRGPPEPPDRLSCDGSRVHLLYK

Mus musculus = organism: Mus musculus; test: Inhibition of Interleukin IL-1 at 10 µM in the Eurofins-Panlabs radioligand binding assay (Eurofins_assay_243520); set-up: ligand concentration 0.1 nM; settings: Compound concentration 10.0 uM
[4] = target: T3, Alpha-2A adrenergic receptor (Homo sapiens) (UniProt P08913); test: Adrenergic alpha2A Eurofins-Panlabs radioligand binding assay; set-up: ligand concentration 1 nM, non-specific ligand with concentration 10 µM WB-4101, incubation time 60 min, incubation temperature 25 °C; settings: Compound concentration 10.0 uM
T3 sequence (whole entry): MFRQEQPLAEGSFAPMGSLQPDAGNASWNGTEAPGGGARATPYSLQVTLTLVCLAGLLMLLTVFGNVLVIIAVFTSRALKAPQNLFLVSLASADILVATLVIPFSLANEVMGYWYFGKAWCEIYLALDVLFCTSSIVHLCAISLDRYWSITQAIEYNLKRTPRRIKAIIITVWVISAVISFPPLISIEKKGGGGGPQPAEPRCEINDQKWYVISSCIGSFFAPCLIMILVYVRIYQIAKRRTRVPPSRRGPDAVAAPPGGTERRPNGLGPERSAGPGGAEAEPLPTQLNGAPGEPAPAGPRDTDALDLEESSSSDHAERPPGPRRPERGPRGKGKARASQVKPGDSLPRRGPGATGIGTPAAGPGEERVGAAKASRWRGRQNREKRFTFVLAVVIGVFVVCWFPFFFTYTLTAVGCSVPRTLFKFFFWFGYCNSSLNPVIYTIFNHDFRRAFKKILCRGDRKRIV

[5] = target: T4, Muscarinic acetylcholine receptor M4 (Homo sapiens) (UniProt P08173); test: M4 (h) Eurofins-Cerep Cellular and Nuclear Receptor Functional Assays; settings: Compound concentration 10.0 uM
T4 sequence (whole entry): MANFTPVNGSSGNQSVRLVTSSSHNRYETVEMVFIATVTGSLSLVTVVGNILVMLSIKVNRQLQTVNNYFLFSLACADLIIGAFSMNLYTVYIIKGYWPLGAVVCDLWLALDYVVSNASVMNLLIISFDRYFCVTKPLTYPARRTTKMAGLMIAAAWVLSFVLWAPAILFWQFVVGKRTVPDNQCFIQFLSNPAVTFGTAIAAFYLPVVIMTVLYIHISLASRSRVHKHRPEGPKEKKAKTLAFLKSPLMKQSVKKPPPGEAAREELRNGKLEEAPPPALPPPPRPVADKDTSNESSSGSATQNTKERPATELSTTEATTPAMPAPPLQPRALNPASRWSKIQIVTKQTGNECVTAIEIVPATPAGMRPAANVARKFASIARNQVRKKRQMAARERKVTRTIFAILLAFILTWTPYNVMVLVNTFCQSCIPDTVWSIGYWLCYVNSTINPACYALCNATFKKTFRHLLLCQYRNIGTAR

[6] = target: Mu-type opioid receptor (Homo sapiens) (UniProt P35372); test: my(MOP) (h) Eurofins-Cerep Cellular and Nuclear Receptor Functional Assays; settings: Compound concentration 10.0 uM
Chain of Mu-type opioid receptor (Homo sapiens) (P35372 whole entry): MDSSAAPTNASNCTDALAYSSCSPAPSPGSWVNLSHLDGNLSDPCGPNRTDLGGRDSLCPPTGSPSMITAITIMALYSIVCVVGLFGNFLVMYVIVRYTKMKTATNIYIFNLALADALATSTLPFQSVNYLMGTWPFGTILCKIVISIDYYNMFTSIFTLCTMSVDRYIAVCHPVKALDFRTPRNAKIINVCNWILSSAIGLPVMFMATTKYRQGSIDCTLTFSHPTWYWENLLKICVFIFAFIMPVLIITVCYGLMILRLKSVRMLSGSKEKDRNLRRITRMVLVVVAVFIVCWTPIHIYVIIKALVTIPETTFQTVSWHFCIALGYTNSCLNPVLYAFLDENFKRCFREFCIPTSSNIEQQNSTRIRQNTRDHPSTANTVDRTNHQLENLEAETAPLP

[7] = target: Substance-P receptor (Homo sapiens) (UniProt P25103); test: Tachykinin NK1 Eurofins-Panlabs radioligand binding assay; settings: Compound concentration 10.0 uM
Chain of Substance-P receptor (Homo sapiens) (P25103 whole entry): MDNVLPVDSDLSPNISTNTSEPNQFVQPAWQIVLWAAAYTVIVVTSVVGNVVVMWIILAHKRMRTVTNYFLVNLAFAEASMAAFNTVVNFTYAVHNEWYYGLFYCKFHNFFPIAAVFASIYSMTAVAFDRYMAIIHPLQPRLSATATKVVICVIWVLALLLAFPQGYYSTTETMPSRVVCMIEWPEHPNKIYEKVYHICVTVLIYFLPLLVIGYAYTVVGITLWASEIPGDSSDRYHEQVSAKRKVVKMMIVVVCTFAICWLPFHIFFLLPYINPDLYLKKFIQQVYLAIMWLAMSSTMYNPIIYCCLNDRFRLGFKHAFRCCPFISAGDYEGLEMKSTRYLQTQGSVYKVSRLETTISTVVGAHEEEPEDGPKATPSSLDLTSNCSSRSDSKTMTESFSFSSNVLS

[8] = target: Dual specificity protein kinase CLK2 (Homo sapiens) (UniProt P49760); settings: Compound concentration 1000.0 nM
Chain of Dual specificity protein kinase CLK2 (Homo sapiens) (P49760 whole entry, looked up, canonical isoform): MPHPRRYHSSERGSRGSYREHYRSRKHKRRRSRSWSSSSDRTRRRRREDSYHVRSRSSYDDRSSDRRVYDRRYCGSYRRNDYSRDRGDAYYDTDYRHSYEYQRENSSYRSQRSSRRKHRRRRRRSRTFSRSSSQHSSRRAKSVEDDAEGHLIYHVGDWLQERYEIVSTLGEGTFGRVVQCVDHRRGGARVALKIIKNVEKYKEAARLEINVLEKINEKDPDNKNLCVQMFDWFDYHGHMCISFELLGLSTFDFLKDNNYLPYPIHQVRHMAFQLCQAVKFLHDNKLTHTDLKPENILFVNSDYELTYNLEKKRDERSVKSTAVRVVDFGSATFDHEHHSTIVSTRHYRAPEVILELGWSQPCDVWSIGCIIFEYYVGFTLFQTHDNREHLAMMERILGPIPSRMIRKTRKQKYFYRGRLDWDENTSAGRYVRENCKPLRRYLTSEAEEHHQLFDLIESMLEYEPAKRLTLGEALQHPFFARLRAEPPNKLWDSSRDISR

[9] = tested on: Phosphatidylinositol 4,5-bisphosphate 3-kinase catalytic subunit alpha isoform (Homo sapiens), P42336 [M1043I]; settings: Compound concentration 1000.0 nM
Chain of Phosphatidylinositol 4,5-bisphosphate 3-kinase catalytic subunit alpha isoform (Homo sapiens), P42336 [M1043I] (P42336 whole entry M1043I, canonical isoform): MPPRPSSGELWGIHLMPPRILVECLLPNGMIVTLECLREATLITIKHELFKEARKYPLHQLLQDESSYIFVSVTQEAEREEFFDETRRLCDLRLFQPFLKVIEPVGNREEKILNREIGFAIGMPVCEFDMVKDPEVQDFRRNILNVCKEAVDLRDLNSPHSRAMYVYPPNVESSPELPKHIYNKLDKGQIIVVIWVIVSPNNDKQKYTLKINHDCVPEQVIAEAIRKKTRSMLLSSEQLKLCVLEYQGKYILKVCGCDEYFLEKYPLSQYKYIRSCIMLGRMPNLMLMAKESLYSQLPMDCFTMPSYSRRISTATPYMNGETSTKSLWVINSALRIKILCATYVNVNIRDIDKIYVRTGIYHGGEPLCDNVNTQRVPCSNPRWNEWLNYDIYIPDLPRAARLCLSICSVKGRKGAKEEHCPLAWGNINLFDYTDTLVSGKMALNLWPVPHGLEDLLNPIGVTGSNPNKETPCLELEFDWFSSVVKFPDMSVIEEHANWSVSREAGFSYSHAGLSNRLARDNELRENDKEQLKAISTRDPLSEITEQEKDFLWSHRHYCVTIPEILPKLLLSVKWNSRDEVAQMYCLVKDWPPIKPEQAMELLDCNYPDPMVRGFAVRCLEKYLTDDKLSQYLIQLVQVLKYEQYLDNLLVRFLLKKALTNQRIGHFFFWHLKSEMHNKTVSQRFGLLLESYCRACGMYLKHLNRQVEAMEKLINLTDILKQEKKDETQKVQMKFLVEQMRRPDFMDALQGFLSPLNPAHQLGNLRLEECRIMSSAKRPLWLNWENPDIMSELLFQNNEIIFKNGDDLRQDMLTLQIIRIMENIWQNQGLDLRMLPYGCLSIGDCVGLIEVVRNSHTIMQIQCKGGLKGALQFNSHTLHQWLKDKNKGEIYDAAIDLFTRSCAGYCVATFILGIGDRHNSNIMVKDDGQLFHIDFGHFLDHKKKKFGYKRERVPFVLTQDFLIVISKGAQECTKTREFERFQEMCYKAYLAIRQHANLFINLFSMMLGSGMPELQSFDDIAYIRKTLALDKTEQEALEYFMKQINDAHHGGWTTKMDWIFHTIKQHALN

[10] = target: 5-hydroxytryptamine receptor 5A (Homo sapiens) (UniProt P47898); settings: Compound concentration 10.0 uM
Chain of 5-hydroxytryptamine receptor 5A (Homo sapiens) (P47898 whole entry): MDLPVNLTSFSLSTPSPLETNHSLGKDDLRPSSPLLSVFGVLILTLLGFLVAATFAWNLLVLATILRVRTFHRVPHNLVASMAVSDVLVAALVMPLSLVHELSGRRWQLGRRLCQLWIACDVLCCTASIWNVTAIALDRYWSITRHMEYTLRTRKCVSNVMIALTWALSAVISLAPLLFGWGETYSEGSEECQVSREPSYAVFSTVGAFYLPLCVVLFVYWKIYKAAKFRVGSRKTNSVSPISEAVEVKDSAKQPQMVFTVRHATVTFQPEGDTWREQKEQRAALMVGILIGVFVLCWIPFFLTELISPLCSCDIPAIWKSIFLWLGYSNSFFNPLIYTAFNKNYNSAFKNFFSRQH

[11] = target: GABA-A receptor; anion channel (Rattus norvegicus) (UniProt O09028+P15431+P18506+P18508+P19969+P20236+P23574+P23576+P28471+P28473+P30191+P62813+P63079+P63138+Q91ZM7+Q9ES14); settings: Compound concentration 10.0 uM
[12] = target: Adenosine receptor A2a (Homo sapiens) (UniProt P29274); settings: Compound concentration 10.0 uM
Chain of Adenosine receptor A2a (Homo sapiens) (P29274 whole entry): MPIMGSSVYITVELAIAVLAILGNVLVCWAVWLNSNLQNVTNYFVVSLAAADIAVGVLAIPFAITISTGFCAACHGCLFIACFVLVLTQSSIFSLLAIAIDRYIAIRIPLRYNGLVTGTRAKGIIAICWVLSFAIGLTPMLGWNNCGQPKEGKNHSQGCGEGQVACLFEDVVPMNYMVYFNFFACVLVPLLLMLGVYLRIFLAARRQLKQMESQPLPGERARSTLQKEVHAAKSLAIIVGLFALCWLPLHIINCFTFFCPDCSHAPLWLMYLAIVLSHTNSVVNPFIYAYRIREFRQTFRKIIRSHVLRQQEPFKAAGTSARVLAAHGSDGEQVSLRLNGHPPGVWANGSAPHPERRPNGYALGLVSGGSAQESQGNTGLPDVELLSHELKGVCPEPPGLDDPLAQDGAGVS

[13] = target: Endothelin receptor type B (Homo sapiens) (UniProt P24530); settings: Compound concentration 10.0 uM
Chain of Endothelin receptor type B (Homo sapiens) (P24530 whole entry): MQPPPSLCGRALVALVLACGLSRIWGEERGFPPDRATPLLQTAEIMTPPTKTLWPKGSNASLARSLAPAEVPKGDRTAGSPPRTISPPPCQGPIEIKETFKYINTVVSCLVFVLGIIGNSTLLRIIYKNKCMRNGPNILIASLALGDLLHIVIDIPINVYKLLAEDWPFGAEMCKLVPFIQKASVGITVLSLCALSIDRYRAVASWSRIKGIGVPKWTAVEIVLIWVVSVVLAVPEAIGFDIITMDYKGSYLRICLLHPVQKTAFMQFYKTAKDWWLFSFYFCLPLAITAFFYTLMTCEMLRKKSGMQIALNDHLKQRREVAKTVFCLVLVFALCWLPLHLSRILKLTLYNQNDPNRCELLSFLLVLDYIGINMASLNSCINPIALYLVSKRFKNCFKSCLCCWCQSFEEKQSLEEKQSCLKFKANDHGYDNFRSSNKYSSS

[14] = target: Histamine H2 receptor (Homo sapiens) (UniProt P25021); settings: Compound concentration 10.0 uM
Chain of Histamine H2 receptor (Homo sapiens) (P25021 whole entry): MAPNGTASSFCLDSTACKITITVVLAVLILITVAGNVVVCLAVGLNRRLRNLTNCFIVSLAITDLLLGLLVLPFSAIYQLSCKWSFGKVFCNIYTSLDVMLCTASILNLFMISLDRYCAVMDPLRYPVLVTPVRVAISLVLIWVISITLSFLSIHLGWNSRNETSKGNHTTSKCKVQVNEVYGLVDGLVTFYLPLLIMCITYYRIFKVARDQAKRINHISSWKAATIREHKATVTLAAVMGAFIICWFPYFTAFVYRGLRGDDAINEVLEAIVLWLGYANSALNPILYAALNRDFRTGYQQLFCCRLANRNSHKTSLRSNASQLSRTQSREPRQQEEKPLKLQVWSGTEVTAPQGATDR

Row | Compound | inhibition [1] | inhibition [2] | inhibition [3] | inhibition (Mus musculus) | inhibition [4] | % Inhibition of Control Agonist Response (Mean n=2) [5] | % of Control Agonist Response (Mean n=2) [5] | % Inhibition of Control Agonist Response (Mean n=2) [6] | % of Control Agonist Response (Mean n=2) [6] | inhibition [7] | residual activity [8] | residual activity [9] | inhibition [10] | inhibition [11] | inhibition [12] | inhibition [13] | inhibition [14]
1 | O=C(N1CCS(=O)(=O)CC1)N1C[C@H](c2ccc(OC(F)(F)F)cc2)C[C@H](c2nc(C3CC3)no2)C1 [BAY-386] | -4% | -9% | 10% | 16% | 8% | 5.8% | -15% | 3.7% | 1% | -2% | 100% | 100% | 10% | -7.39% | 0% | -4% | -3%
2 | Cc1noc([C@H]2C[C@@H](c3ccc(C(F)(F)F)cc3)CN(C(=O)N3CCS(=O)(=O)C3)C2)n1 [BAY-448] |  |  |  |  |  | 1.9% | 25.1% |  |  |  | 100% | 100% |  | 3.61% |  |  | 
